According to patent publication US5495032A, “Process for producing 7-(substituted)-8-(substituted-9-[(substituted glycyl)amido]-6-demethyl-6-deoxytetracyclines” (priority 1994, dated 1996):
Converted amounts (≈) assume the structure as drawn. Structures can show the parent of a compound that is named as a salt. Where two headings read alike, the source gives them in different places.

Key:
Type in all cases: cell-based
E. coli UBMS 89-1 Tet M = test: microbe, parasite or virus in culture; conditions: Escherichia coli, UBMS891TETM, 18 h, 18 hours at 35° C.
E. coli UBMS 90-4 Tet M = test: microbe, parasite or virus in culture; conditions: Escherichia coli, UBMS904TETM, 18 h, 18 hours at 35° C.
[1] = test system: Ps. acruginosa ATCC 27853; test: MIC, agar dilution method
E. coli #311 (MP) = test: MIC, agar dilution method; conditions: Escherichia coli, 18 hours at 35° C., read-out: MIC
S. aureus SMITH (MP) = test: MIC, agar dilution method; conditions: Staphylococcus aureus, 18 hours at 35° C., read-out: MIC
S. mariescens FPOR 8733 = test: MIC, agar dilution method; conditions: 18 h, 18 hours at 35° C.
S. aureus UBMS 88-4 = test: MIC, agar dilution method; conditions: Staphylococcus aureus, UBMS884, 18 hours at 35° C., read-out: MIC
E. coli J2175 = test: MIC, agar dilution method; conditions: Escherichia coli, 18 hours at 35° C., read-out: MIC
[2] = test system: E. coli MC 4100 TNIOC Tet B; test: microbe, parasite or virus in culture; conditions: Escherichia coli, 18 h, 18 hours at 35° C.
S. aureus NEMC 8769 = test: MIC, agar dilution method; conditions: Staphylococcus aureus
S. aureus ATCC 29213 = test: MIC, agar dilution method; conditions: Staphylococcus aureus
[3] = test system: X. maltophilia NEMC 87210; test: MIC, agar dilution method; conditions: Stenotrophomonas maltophilia
[4] = test system: S. aureus UBMS 90-1 Tet M; test: microbe, parasite or virus in culture; conditions: Staphylococcus aureus, UBMS901TETM, 18 h, 18 hours at 35° C.
[5] = test system: E. coli UBMS 89-2 Tet sens; test: MIC, agar dilution method; conditions: Escherichia coli, UBMS892TETSENS, 18 h, 18 hours at 35° C., read-out: MIC
S. aureus IVES 2943 = test: MIC, agar dilution method; conditions: Staphylococcus aureus
S. aureus ROSE (MP) = test: MIC, agar dilution method; conditions: Staphylococcus aureus, 18 hours at 35° C.
S. aureus IVES 1 983 = test: MIC, agar dilution method; conditions: Staphylococcus aureus
E. coli UBMS 88-1 Tet B = test: microbe, parasite or virus in culture; conditions: Escherichia coli, UBMS881TETB, 18 h, 18 hours at 35° C.
[6] = test system: S. hemolyticus AVHAH 88-3; test: MIC, agar dilution method; conditions: Streptococcus pyogenes
Enterococcus 12201 = test: MIC, agar dilution method; conditions: 18 hours at 35° C.
E. coli J3272 Tet D = test: microbe, parasite or virus in culture; conditions: Escherichia coli, J3272TETD, 18 h
E. faecalis ATCC 29212 = test: MIC, agar dilution method; conditions: Enterococcus faecalis
E. coli UBMS 90-5 sens = test: MIC, agar dilution method; conditions: Escherichia coli, UBMS905SENS, 18 hours at 35° C., read-out: MIC
E. coli BAJ9003 IMP MUT = test: microbe, parasite or virus in culture; conditions: Escherichia coli, BAJ9003IMPMUT, 18 h, 18 hours at 35° C.
E. coli PRP1 Tet A = test: microbe, parasite or virus in culture; conditions: Escherichia coli, PRP1TETA, 18 h, 18 hours at 35° C.
E. coli J3272 Tet C = test: microbe, parasite or virus in culture; conditions: Escherichia coli, J3272TETC, 18 h
E. coli ATCC 25922 = test: MIC, agar dilution method; conditions: Escherichia coli, ATCC25922, 18 hours at 35° C., read-out: MIC
[7] = test system: S. aureus UBMS 88-7 Tet K; test: microbe, parasite or virus in culture; conditions: Staphylococcus aureus, UBMS887TETK, 18 h, 18 hours at 35° C.
[8] = test system: S. aureus UBMS 88-5 Tet M; test: microbe, parasite or virus in culture; conditions: Staphylococcus aureus, UBMS885TETM, 18 h
[9] = test system: S. aureus UBMS 90-2 Tet M; test: microbe, parasite or virus in culture; conditions: Staphylococcus aureus, UBMS902TETM, 18 h, 18 hours at 35° C.
S. aureus UBMS 90-3 = test: MIC, agar dilution method; conditions: Staphylococcus aureus, UBMS903, 18 h
[10] = test system: E. coli MC 4100 Tet sens.; test: MIC, agar dilution method; conditions: Escherichia coli, 18 hours at 35° C., read-out: MIC
[11] = NEMC87210, 18 h, 18 hours at 35° C.
[12] = IVES2943, S. aureus IVES 2943, 18 hours at 35° C., read-out: MIC
[13] = IVES1983, S. aureus IVES 1 983, 18 hours at 35° C., read-out: MIC
[14] = AVHAH883, 18 h, 18 hours at 35° C.
[15] = ATCC29212, 18 h, 18 hours at 35° C.
[16] = S. aureus UBMS 88-5 Tet M, 18 hours at 35° C.
[17] = NEMC8769, S. aureus NEMC 8769, 18 hours at 35° C., read-out: MIC
[18] = ATCC29213, 18 hours at 35° C., read-out: MIC
[19] = AVHAH883, 18 hours at 35° C., read-out: MIC

Row | Structure (SMILES) | MIC (E. coli UBMS 89-1 Tet M) [µg/mL] | MIC (E. coli UBMS 90-4 Tet M) [µg/mL] | MIC ([1]; 18 h) [µg/mL] | MIC (E. coli #311 (MP)) [µg/mL] | MIC (S. aureus SMITH (MP)) [µg/mL] | MIC (S. mariescens FPOR 8733) [µg/mL] | MIC (S. aureus UBMS 88-4) [µg/mL] | MIC (E. coli J2175) [µg/mL] | MIC [2] [µg/mL] | MIC [3, 11] [µg/mL] | MIC [4] [µg/mL] | MIC [5] [µg/mL] | MIC (S. aureus IVES 2943; [12]) [µg/mL] | MIC (S. aureus ROSE (MP); read-out: MIC) [µg/mL] | MIC (E. coli UBMS 88-1 Tet B) [µg/mL] | MIC (E. coli J3272 Tet D) [µg/mL] | MIC (E. coli PRP1 Tet A) [µg/mL] | MIC (E. coli J3272 Tet C) [µg/mL] | MIC [7] [µg/mL] | MIC [9] [µg/mL] | further results
1 | CNCC(=O)Nc1c(Cl)cc2c(c1O)C(=O)C1=C(O)[C@]3(O)C(=O)C(C(N)=O)=C(O)[C@@H](N(C)C)C3CC1C2 (stereo partly drawn) [I, [4S-(4α,12aα)]-8-Chloro-4-(dimethylamino)-1,4,4a,5,5a,6,11,12a-octahydro-3, 10,12,12a-tetrahydroxy-1,11-dioxo-9-[[(methylamino)acetyl]amino]-2-naphthacenecarboxamide dihydrochloride] | 2 | 1 | 16 | 2 | 0.5 | 16 | 0.5 | 1 | 1 | 16 | 0.5 | 2 | > 32 | > 32 | 1 | 1 | 16 | 16 | > 32 | 0.5 | MIC (S. aureus NEMC 8769; NEMC8769, 18 h): 0.5 µg/mL; MIC (S. aureus ATCC 29213; ATCC29213, 18 h, 18 hours at 35° C.): 0.5 µg/mL; MIC (S. aureus IVES 1 983; [13]): > 32 µg/mL; MIC [6, 14]: 2 µg/mL; MIC (Enterococcus 12201; Enterococcus, 12201, 18 h): 0.5 µg/mL; MIC (E. faecalis ATCC 29212; [15]): 0.25 µg/mL; MIC (E. coli UBMS 90-5 sens): 1 µg/mL; MIC (E. coli BAJ9003 IMP MUT): 0.25 µg/mL; MIC (E. coli ATCC 25922): 1 µg/mL; MIC [8]: 0.5 µg/mL; MIC (S. aureus UBMS 90-3): 0.5 µg/mL; MIC [10]: 0.25 µg/mL
2 | CN(C)c1ccc(O)c2c1C[C@H]1C[C@H]3[C@H](N(C)C)C(O)=C(C(N)=O)C(=O)[C@@]3(O)C(O)=C1C2=O [L, Minocycline, reference compound] |  | > 32 |  |  |  |  |  |  |  | 0.25 (≈ 0.546 µM) | 8 (≈ 17.5 µM) |  |  | 1 (≈ 2.19 µM) |  |  |  |  | 0.25 (≈ 0.546 µM) |  | MIC [6, 14]: 0.25 µg/mL (≈ 0.546 µM); MIC [8]: 8 µg/mL (≈ 17.5 µM)
3 | CN(C)[C@@H]1C(O)=C(C(N)=O)C(=O)[C@@]2(O)C(O)=C3C(=O)c4c(O)cccc4[C@@](C)(O)[C@H]3C[C@@H]12 [M, Tetracycline] | 32 (≈ 72 µM) | 32 (≈ 72 µM) | 16 (≈ 36 µM) |  |  | > 32 |  | 2 (≈ 4.5 µM) | > 32 | 8 (≈ 18 µM) | > 32 | 2 (≈ 4.5 µM) |  |  | > 32 | > 32 | 32 (≈ 72 µM) | > 32 | > 32 | 32 (≈ 72 µM) | MIC (S. aureus IVES 2943; IVES2943, 18 h): > 32 µg/mL; MIC (S. aureus ROSE (MP); 18 h): > 32 µg/mL; MIC (S. aureus IVES 1 983; IVES1983, 18 h): > 32 µg/mL; MIC [6, 14]: 1 µg/mL (≈ 2.25 µM); MIC (Enterococcus 12201; Enterococcus, 12201, 18 h): > 32 µg/mL; MIC (E. faecalis ATCC 29212; [15]): 16 µg/mL (≈ 36 µM); MIC [8, 16]: > 32 µg/mL
4 | CCCCNCC(=O)Nc1c(Cl)cc2c(c1O)C(=O)C1=C(O)[C@]3(O)C(=O)C(C(N)=O)=C(O)[C@@H](N(C)C)C3CC1C2 (stereo partly drawn) [D, [4S-(4α,12aα)]-9-[[(Butylamino)acetyl]amino]-8-chloro-4-(dimethylamino) -1,4,4a,5,5a,6,11,12a-octahydro-3,10,12,12a-tetrahydroxy-1,11-dioxo-2-naphthacenecarboxamide dihydrochloride] | 0.5 | 1 | > 32 | 1 | 0.5 | 16 | 0.5 | 1 | 1 | 4 | 2 | 2 | 16 | 16 | 2 | 1 | 4 | 2 | 8 | 0.5 | MIC (S. aureus NEMC 8769; [17]): 0.5 µg/mL; MIC (S. aureus ATCC 29213; [18]): 0.5 µg/mL; MIC (S. aureus IVES 1 983; [13]): 8 µg/mL; MIC [6, 19]: 8 µg/mL; MIC (Enterococcus 12201; read-out: MIC): 0.5 µg/mL; MIC (E. faecalis ATCC 29212; [15]): 0.25 µg/mL; MIC (E. coli UBMS 90-5 sens): 1 µg/mL; MIC (E. coli BAJ9003 IMP MUT): 0.25 µg/mL; MIC (E. coli ATCC 25922): 1 µg/mL; MIC [8]: 1 µg/mL; MIC [10]: 0.25 µg/mL
5 | CN(C)[C@@H]1C(O)=C(C(N)=O)C(=O)[C@@]2(O)C(O)=C3C(=O)c4c(cc(Cl)c(NC(=O)CCl)c4O)CC3CC12 (stereo partly drawn) [K, [4S-(4α,12aα)]-9-[(Chloroacetyl)amino]-8-chloro-4-(dimethylamino)-1,4,4a,5,5a ,6,11,12a-octahydro-3,10,12,12a-tetrahydroxy-1,11-dioxo-2-naphthacenecarboxamide hydrochloride] | 8 | > 32 |  | 16 | 0.5 | > 32 | 0.5 | > 32 | > 32 |  | 1 | > 32 | 4 | 4 | > 32 | > 32 | > 32 | > 32 | 4 | 0.5 | MIC ([1]; Ps. acruginosa ATCC 27853, 18 hours at 35° C., read-out: MIC): > 32 µg/mL; MIC (S. aureus NEMC 8769; [17]): 0.5 µg/mL; MIC (S. aureus ATCC 29213; [18]): 0.5 µg/mL; MIC ([3]; NEMC87210, 18 hours at 35° C., read-out: MIC): 8 µg/mL; MIC (S. aureus IVES 1 983; [13]): 4 µg/mL; MIC [6, 19]: 4 µg/mL; MIC (Enterococcus 12201; read-out: MIC): 2 µg/mL; MIC (E. faecalis ATCC 29212; ATCC29212, 18 hours at 35° C., read-out: MIC): 0.5 µg/mL; MIC (E. coli UBMS 90-5 sens): > 32 µg/mL; MIC (E. coli BAJ9003 IMP MUT): 1 µg/mL; MIC (E. coli ATCC 25922): 16 µg/mL; MIC [8, 16]: 1 µg/mL; MIC [10]: 8 µg/mL
